# Experiments:
# HepG2 cells [1] = assay: Wound healing (migration) assay; type: cell-based, human; conditions: 10 μM, 24 h
# Procedure: (§1) Cell migration and invasion potencies were studied using wound healing and Matrigel invasion assays. The wound healing assay was performed by scratching the cell surface with a 10 μL pipette tip. Then, the cells were treated with compound 7 and ISJ (10 μM) and incubated for 24 h before being photographed under a microscope (DMI3000 B, Leica). Wound closure was evaluated using ImageJ software. Invasion through a Matrigel-coated filter was measured in transwell chambers (Corning Costa) as described previously, with minor modifications. Briefly, HepG2 Cells (2 × 10^5/well) were suspended in serum-free medium and added to the upper chamber of the Matrigel plate. FBS (10%) was used as the chemoattractant in the lower chamber. After incubation for 24 h, the non-invading cells were removed from the upper surface of the insert membrane with a cotton swab. The invading cells were fixed with methanol and stained with Giemsa (Sigma). Cells in five randomly selected fields were photographed, and the numbers of cells that crossed the membrane were counted.
# HepG2 cells [2] = assay: Matrigel invasion assay; type: cell-based, human; conditions: 10 μM, 24 h
# Procedure: as §1
# PKCμ = target: T1, PKCμ (Homo sapiens, UniProt Q15139); assay: Cell-based pull-down assay, PKCμ; type: binding; conditions: HepG2 lysates
# T1 construct: Endogenous cPKC (PKCα) and nPKC (PKCδ, PKCε and PKCμ) in HepG2 lysates were pulled down; endogenous in cells; host or cells: HepG2
# T1 sequence (Q15139 1-912): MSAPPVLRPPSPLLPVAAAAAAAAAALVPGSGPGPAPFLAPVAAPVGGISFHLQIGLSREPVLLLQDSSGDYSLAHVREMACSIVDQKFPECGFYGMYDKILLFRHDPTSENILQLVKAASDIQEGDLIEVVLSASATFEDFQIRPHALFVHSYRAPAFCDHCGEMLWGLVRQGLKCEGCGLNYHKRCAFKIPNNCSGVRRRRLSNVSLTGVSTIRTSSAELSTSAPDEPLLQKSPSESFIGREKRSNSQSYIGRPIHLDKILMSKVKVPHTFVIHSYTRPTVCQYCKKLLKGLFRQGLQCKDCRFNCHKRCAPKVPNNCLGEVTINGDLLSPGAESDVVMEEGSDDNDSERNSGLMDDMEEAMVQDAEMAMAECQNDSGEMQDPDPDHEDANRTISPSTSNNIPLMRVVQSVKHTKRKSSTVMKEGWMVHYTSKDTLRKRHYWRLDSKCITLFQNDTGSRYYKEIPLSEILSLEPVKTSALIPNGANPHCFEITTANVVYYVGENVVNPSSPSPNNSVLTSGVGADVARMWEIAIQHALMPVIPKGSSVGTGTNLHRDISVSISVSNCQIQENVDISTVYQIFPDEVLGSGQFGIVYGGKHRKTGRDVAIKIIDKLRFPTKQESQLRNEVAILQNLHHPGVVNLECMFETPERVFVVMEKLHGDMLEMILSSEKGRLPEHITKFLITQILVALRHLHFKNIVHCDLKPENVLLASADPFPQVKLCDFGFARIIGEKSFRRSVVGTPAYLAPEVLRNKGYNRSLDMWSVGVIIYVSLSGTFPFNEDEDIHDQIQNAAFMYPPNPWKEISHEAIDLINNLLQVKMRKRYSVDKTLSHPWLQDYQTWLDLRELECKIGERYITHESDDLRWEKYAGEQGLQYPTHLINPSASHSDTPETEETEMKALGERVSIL
# Procedure: To identify whether ISJ and compound 7 target PKC in cells, we performed pull-down experiments using ISJ- and compound 7-coupled Sepharose beads with HepG2 cell lysates. Endogenous cPKC (PKCα) and nPKC (PKCδ, PKCε and PKCμ) in HepG2 lysates were pulled down by ISJ-coupled CNBr-activated Sepharose 4B beads (Fig. 5a).
# The control beads were prepared by incubating the beads with DMSO. Proteins (500 μg) from lysed HepG2 cells were mixed with either the control beads, compound 7-coupled beads, or ISJ-coupled beads (100 μL) in reaction buffer [50 mM Tris (pH 7.5), 5 mM EDTA, 150 mM NaCl, 1 mM DTT, 0.01% NP-40, 2 μg/mL BSA, 1 mM PMSF, 1% protease inhibitor mixture]. After incubation with gentle rocking overnight at 4 °C, the beads were washed 5 times with washing buffer [50 mM Tris (pH 7.5), 5 mM EDTA, 150 mM NaCl, 1 mM DTT, 0.01% NP-40, 1 mM PMSF], and binding was visualized by western blotting.
# [3] = tested on: c-PARP, c-Cas3 and c-Cas9 in xenograft tumors; assay: Histology, IHC and immunoblot of xenograft tumors; type: in vivo, BALB/c-nu nude mice; conditions: 5 mg/kg
# Procedure: The total membrane and cytosolic proteins were extracted using a Membrane and Cytosol Protein Extraction Kit (Beyotime). Extracted proteins from cells or animal tissues were separated by SDS-PAGE and transferred to polyvinylidene difluoride (PVDF) membranes (Bio-Rad). The PVDF membranes were blocked with 5% nonfat milk and incubated with primary antibodies overnight, followed by incubation with a donkey anti-rabbit or anti-mouse secondary antibody (IRDye 800, LI-COR, Biosciences). The images were captured using the Odyssey Infrared Imaging System (LI-COR, Biosciences), according to the manufacturer's instructions. The intensity was quantitative with Quantity One software (Bio-Rad). To ensure equal protein loading, each membrane was stripped and reprobed with an anti-β-actin antibody. All experiments were repeated independently no less than three times.
# To further confirm the antitumor activities of compound 7 and ISJ in vivo, histological analysis was performed on the hepatoma xenografts. Briefly, the samples were fixed in a 10% formalin solution, processed, embedded, sectioned and either H&E stained to reveal tumor tissue necrosis or IHC stained using antibodies against c-PARP, c-Cas3 or c-Cas9. The H&E and IHC images were obtained on a Leica DMI3000 B phase-contrast microscopy. The immunoreactive areas in the IHC images were quantified using ImagePro Plus 6.0 software (Media Cybernetics, Silver Spring, MD). The integrated optical density (IOD) values were represented as the mean ± SEM.
# [4] = tested on: methicillin-resistant Staphylococcus aureus (MRSA); set-up: method as in PMID 22942699; conditions: cited from earlier work
# HeLa-C3 cells = tested on: HeLa-C3 cells; set-up: method as in PMID 18614188; conditions: cited from earlier work
substance,measurement,setting,value
Isojacareubin [ISJ],decrease of HepG2 cell migration compared to control,HepG2 cells [1],77.8%
same,inhibition of invasiveness compared to control,HepG2 cells [2],76%
same,pull-down of endogenous PKCμ by compound-coupled Sepharose 4B beads,PKCμ,pulled down
same,H&E staining of xenograft tumors,[3],significant tissue death
same,"IHC c-PARP, c-Cas3 and c-Cas9 levels in tumors",[3],upregulated expression
same,"immunoblot c-PARP, c-Cas3 and c-Cas9 levels in tumor tissue",[3],increased
same,antibacterial activity against MRSA,[4],potent antibacterial compound
same,growth of HeLa-C3 cells,HeLa-C3 cells,inhibited the growth
